Experimental data from ChEMBL document CHEMBL1201862, “PubChem BioAssay data set” (2004).
The source made the active and inactive calls.

Experiments:
[1] = viability of uninfected HEp-2 cells – cell-based, HTS, cytotoxicity control for RSV inhibitor project, dose response (AID 2410); format: functional; conditions: human respiratory syncytial virus
[2] = Luminescence Cell-Based Dose Retest to Confirm Inhibitors of Cancer Stem Cells. [Related pubchem assays (depositor defined):AID2717, AID2721]; format: functional; conditions: Homo sapiens
INS1 = experiment: INS-1E survival protection against cytokine death – cell-based, luminescence, retest, dose response (AID 449756); format: functional; conditions: Rattus norvegicus;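 also: cell death triggered by IL-1 beta plus TNF-alpha plus IFN-gamma mixture; protective hits raise ATP signal compared with cytokine alone wells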
cells [3] = experiment: cells
[4] = Vero E6 cell cytotoxicity, dose response, cytotoxicity control for non-replicating M. tuberculosis project, secondary assay (AID 492998); format: functional, VeroE6; conditions: Vero C1008
cells [5] = format: functional
[6] = molecular target: T1, RNA-binding protein pos-1 (Caenorhabditis elegans, UniProt G5EF15); experiment: disruptors of C. elegans POS-1 RNA interaction – biochemical, fluorescence polarization, dose response (AID 1964);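 also: purified POS-1 fused to maltose binding protein made in E. coli; potency of compounds blocking POS-1 binding to fluorescent RNA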
T1 sequence (G5EF15 whole entry): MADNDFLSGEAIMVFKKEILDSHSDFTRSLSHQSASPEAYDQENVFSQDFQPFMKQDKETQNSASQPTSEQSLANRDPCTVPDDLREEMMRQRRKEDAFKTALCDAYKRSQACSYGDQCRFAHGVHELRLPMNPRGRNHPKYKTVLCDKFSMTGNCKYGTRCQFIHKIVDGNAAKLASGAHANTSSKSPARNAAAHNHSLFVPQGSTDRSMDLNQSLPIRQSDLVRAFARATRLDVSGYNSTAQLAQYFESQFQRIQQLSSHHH

[7] = molecular target: T2, Zinc finger protein mex-5 (Caenorhabditis elegans, UniProt Q9XUB2); experiment: potency of MEX-5 RNA-binding blockers – biochemical, C. elegans, fluorescence polarization, dose response (AID 1960)
T2 sequence (Q9XUB2 whole entry): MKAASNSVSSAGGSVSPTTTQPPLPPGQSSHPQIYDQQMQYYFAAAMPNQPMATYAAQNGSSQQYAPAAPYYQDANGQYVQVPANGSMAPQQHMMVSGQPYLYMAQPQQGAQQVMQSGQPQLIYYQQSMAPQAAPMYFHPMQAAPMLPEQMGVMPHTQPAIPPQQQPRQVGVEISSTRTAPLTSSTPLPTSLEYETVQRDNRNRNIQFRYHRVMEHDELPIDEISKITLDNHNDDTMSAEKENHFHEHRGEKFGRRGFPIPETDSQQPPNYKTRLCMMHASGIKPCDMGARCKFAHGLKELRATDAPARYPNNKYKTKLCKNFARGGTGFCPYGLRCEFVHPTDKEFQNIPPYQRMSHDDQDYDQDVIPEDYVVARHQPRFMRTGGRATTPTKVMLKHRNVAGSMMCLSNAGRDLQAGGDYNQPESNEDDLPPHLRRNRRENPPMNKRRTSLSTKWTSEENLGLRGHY

[8] = blockers of bursicon-stimulated LGR2 cAMP reporter – cell-based, HEK293, CRE-luciferase reporter, cherry pick, set 2, dose response (AID 743343); format: functional;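 also: transfected cells were stimulated with diluted bursicon conditioned medium after compound addition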
Cytochrome P450 3A4 = Cytochrome P450 3A4 (Homo sapiens, UniProt P08684); conditions: Potency;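 also: confirmatory qHTS run detecting inhibitors and substrates of CYP3A4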
Aminopeptidase N = molecular target: T3, Aminopeptidase N (Plasmodium falciparum FcB1/Columbia, UniProt O96935); experiment: malaria alanyl aminopeptidase activity blockers – biochemical, fluorogenic H-Leu-NHMec substrate, 1536-well (AID 1445); parameters: species or system Plasmodium falciparum 3D7, 3D7
T3 sequence (O96935 whole entry): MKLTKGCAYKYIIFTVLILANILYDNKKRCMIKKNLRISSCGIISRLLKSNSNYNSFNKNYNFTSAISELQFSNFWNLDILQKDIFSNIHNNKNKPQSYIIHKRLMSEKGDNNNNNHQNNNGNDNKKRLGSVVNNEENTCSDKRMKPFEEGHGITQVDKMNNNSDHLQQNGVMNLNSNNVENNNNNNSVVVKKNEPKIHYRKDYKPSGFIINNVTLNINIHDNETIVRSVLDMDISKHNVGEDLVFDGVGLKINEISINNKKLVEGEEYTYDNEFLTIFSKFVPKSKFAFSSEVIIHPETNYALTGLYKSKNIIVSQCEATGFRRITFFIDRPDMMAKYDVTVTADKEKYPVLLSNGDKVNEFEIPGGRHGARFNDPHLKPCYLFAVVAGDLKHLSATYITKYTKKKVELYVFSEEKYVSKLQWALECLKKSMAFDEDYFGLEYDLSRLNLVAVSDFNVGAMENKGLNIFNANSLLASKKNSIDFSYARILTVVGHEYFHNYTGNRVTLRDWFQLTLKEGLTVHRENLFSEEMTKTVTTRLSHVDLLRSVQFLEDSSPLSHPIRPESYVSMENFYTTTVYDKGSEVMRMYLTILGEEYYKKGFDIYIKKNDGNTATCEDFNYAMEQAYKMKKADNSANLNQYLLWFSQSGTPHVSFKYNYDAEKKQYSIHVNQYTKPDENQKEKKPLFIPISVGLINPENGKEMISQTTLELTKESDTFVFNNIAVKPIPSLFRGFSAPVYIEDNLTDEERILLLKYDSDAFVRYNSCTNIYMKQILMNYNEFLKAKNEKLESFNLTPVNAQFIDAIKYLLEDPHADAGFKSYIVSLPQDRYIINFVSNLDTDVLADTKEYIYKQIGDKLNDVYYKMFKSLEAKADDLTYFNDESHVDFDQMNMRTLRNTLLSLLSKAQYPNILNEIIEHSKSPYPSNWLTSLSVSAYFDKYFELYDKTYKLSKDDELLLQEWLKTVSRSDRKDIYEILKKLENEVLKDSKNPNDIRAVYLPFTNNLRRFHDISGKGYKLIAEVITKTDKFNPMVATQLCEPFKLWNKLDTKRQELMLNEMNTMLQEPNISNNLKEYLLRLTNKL

Genome polyprotein = Genome polyprotein (dengue virus type 2, UniProt P29990); experiment: flavivirus cap methylation enzyme inhibition – biochemical, confirmation dose response, primary screen (AID 588689); format: functional
[9] = HEK-293T viability loss after treatment – luminescence, T-cell screen hits, cytotoxicity control for TCR NF-kB inhibitor project, dose response (AID 489026); format: functional, cell-based;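 also: cells exposed to compound about 14 hours before the viability readout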
[10] = molecular target: T4, Microphthalmia-associated transcription factor (Homo sapiens, UniProt O75030); experiment: reducers of TRPM1 reporter luminescence, concentration series – cell-based, SK-MEL-5, cherry-picked, set 3, MITF inhibitor project, dose response (AID 493073); format: functional;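 also: SK-MEL-5 melanoma cells with luciferase driven by the MITF target TRPM1 promoter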
T4 sequence (O75030 whole entry): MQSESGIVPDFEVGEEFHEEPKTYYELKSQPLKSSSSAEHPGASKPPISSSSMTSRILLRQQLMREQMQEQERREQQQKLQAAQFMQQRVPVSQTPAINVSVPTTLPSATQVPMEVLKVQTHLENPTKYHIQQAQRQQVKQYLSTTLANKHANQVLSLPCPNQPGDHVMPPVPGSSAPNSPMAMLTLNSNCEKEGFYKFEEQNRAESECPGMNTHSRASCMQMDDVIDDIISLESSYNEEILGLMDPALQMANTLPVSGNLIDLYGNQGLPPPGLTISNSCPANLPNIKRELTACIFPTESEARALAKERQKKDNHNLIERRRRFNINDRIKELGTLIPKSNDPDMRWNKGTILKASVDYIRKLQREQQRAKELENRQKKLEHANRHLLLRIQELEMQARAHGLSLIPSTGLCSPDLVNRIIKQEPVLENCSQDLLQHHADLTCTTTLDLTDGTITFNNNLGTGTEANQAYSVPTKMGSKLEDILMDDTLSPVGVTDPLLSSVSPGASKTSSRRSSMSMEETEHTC

Paired box protein Pax-8 = Paired box protein Pax-8 (Homo sapiens, UniProt Q06710); experiment: PAX8 transcriptional activity inhibition in RMG-I – RMG-I cells, luciferase, cherry-pick, dose response (AID 687027); format: functional, cell-based;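 also: luciferase reporter driven by Pax8 target thyroperoxidase promoter measured by SteadyGlo luminescence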
[11] = growth inhibition of yeast DHODH-expressing 3D7 parasites – SYBR Green, dry powder samples, dose response (AID 1159570); format: functional, cell-based;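 also: parasite growth measured after 72 hours of compound exposure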
[12] = toxicity to human HepG2 hepatoma cells – cell-based, plate reader, dry powder samples, cytotoxicity control, dose response (AID 1159569); format: functional;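 also: inhibitor potency with signal falling toward the positive control level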
[13] = P. falciparum Dd2 growth inhibitors, dose response, SYBR Green, cherry-picked samples (AID 1159567); format: functional, cell-based
[14] = Dd2 malaria parasite growth inhibition potency – SYBR Green, dry powder samples, dose response (AID 1159566); format: functional, cell-based;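 also: potency for growth inhibition with lower SYBR green DNA signal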
[15] = growth inhibition of PfATP4-mutant resistant parasites – NITD609-resistant line, SYBR Green, dry powder, dose response (AID 1159571); format: functional, cell-based;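 also: parasites synchronized at ring stage by sorbitol before testing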

Chain of Cytochrome P450 3A4 (P08684 whole entry): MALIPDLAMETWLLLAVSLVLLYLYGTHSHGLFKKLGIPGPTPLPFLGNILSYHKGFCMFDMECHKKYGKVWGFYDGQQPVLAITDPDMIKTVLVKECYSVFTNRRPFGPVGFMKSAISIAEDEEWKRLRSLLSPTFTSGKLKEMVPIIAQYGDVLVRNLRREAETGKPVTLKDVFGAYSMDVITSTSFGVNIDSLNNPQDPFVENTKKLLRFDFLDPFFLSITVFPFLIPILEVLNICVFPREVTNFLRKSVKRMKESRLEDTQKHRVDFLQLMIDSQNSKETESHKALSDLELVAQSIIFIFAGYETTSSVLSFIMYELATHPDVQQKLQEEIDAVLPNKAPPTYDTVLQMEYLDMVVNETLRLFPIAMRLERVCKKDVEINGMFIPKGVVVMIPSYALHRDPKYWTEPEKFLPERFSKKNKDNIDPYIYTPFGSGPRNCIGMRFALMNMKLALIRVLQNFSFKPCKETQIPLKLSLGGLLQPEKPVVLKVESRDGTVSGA
Chain of Genome polyprotein (P29990 2492-3391 limits assumed): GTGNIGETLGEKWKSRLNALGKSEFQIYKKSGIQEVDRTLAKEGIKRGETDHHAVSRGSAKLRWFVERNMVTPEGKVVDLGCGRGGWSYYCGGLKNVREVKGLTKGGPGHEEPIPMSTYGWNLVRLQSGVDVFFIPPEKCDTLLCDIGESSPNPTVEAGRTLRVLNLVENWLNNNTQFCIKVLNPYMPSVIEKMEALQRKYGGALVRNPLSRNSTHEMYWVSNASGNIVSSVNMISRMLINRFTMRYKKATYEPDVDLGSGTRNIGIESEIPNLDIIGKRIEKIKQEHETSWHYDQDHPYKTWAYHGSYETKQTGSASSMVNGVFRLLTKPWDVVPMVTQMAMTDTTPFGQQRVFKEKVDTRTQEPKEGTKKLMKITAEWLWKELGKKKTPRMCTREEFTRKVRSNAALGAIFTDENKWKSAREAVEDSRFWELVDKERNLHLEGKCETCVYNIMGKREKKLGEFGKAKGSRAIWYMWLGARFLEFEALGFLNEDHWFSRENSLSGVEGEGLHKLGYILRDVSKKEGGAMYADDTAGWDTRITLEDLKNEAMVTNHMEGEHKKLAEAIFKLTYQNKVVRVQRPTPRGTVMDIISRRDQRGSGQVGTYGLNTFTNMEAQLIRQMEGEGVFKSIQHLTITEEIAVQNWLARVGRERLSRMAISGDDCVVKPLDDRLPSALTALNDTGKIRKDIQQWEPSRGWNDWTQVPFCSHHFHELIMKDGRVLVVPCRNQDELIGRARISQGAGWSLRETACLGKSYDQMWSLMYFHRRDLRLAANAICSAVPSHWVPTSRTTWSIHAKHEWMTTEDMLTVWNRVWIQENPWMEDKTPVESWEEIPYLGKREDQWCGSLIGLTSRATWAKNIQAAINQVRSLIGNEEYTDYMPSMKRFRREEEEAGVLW
Chain of Paired box protein Pax-8 (Q06710 whole entry): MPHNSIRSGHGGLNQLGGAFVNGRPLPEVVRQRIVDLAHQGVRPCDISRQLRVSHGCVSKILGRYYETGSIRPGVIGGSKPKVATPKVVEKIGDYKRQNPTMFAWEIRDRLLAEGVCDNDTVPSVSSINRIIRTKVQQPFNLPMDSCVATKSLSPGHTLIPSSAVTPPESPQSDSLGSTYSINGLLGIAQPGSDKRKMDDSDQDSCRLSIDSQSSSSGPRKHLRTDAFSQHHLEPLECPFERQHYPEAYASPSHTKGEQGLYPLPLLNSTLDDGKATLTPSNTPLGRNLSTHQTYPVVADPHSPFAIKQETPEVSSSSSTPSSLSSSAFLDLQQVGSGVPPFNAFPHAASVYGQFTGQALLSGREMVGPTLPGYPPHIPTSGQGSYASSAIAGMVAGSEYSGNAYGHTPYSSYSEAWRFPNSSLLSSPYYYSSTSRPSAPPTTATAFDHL

Structure (SMILES): N#CCSc1nc2ccccc2c2nc3ccccc3n12
- CC50 [1]: 7.62 µM (active)
- AC50 [2]: 3.31 µM (active)
- AC50 (INS1): 8.38 µM (active)
- IC50 (cells [3]): 9.82 µM (active)

Structure (SMILES): C=CCn1c(NC(=O)c2ccccc2)nc2ccccc21
- CC50 [4]: 17.7 µM (active)
- IC50 (cells [5]): 0.68 µM (active)

Structure (SMILES): O=C(c1ccc(Br)o1)N1CCN=C1SCc1cccc(F)c1
- EC50 [6]: > 300 µM (not active)
- EC50 [7]: > 300 µM (not active)

Structure (SMILES): CC(C)(C)NC(=O)c1cccc(NC(=O)c2ccc3c(c2)C(=O)N(C(C)(C)C)C3=O)c1
- CC50 [1]: > 50 µM (active)
- AC50 [8]: 37.3 µM (active)
- IC50 (cells [3]): 39.8 µM (active)

Structure (SMILES): COC(=O)N1[C@H](C)C=C[C@]1(Cc1ccccc1)C(=O)NCc1ccc(N(C)C)cc1
- AC50 (Cytochrome P450 3A4): 1 µM (inconclusive)

Structure (SMILES): O=C(Nc1ccc(Cl)cc1C(=O)O)c1ccc2c(c1)C(=O)N(Cc1ccco1)C2=O
- IC50 (Aminopeptidase N): 137 µM (active)
- IC50 (Genome polyprotein): 46.3 µM (active)

Structure (SMILES): N#C/C(=C\c1ccc(OCc2ccc(C(=O)O)cc2)cc1)C(=O)N1CCOCC1
- IC50 [9]: > 80 µM (inactive)
- AC50 [10]: 1.19 µM (active)

Structure (SMILES): C[C@H]1CN([C@@H](C)CO)C(=O)c2c(c3ccccc3n2C)-c2ccccc2CO[C@@H]1CN(C)Cc1ccc(-c2ccccc2)cc1
- AC50 (Paired box protein Pax-8): 24.9 µM (active)
- AC50 [11]: 2.75 µM (active)
- AC50 [12]: 22.2 µM (active)
- AC50 [13]: 2.75 µM (active)
- AC50 [14]: 1.49 µM (active)
- AC50 [15]: 1.99 µM (active)

Structure (SMILES): Fc1cccc(-c2ccc([C@@H]3[C@@H]4CN(Cc5cncnc5)C[C@H]3N4)cc2)c1
- AC50 [11]: 4.51 µM (active)
- AC50 [12]: 18.8 µM (active)
- AC50 [13]: 1.36 µM (active)
- AC50 [14]: 1.6 µM (active)
- AC50 [15]: 2.67 µM (active)

Structure (SMILES): COc1ccc(C(=O)c2ccc(O)cc2)c(O)c1O [2,3,4'-TRIHYDROXY-4-METHOXYBENZOPHENONE]
- AC50 (Cytochrome P450 3A4): 25.1 µM (inconclusive)
